Common to all, as to format: cell-based
The target of one assay is T1, Ba/F3 cells with EGFR WT (Homo sapiens, UniProt P00533).
T1 construct: expressed in transfected cells; host or cells: Ba/F3 (murine pro-B cells), retroviral transduction, puromycin selection, maintained with EGF
The assay can be described thus: EGFR activity: Ba/F3 cell viability (CellTiter-Glo, 72 h), EGFR WT. The conditions noted are these: read-out: BaF3 WT IC50. In general terms: In ATP-based viability assays light output follows the ATP content of the culture.

In assay [1] the target is T2, Ba/F3 cells with EGFR exon 20 NPG Ins D770_N771 (Homo sapiens, UniProt P00533, INS770NPG).
T2 construct: expressed in transfected cells; host or cells: Ba/F3 (murine pro-B cells), retroviral transduction, puromycin selection, IL3-independent pool
The assay can be described thus: EGFR activity: Ba/F3 cell viability (CellTiter-Glo, 72 h), EGFR exon 20 NPG insertion. The conditions noted are these: EGFR exon 20 NPG Ins D770_N771, cell viability, read-out: BaF3 NPG IC50.

Assay [2] concerns the target T3, pEGFR in Ba/F3 cells expressing EGFR exon 20 NPG Ins D770_N771 (Homo sapiens, UniProt P00533, INS770NPG).
T3 construct: expressed in transfected cells; host or cells: Ba/F3 (murine pro-B cells), retroviral transduction, puromycin selection, IL3-independent pool
The assay can be described thus: Inhibitor activity on EGFR phosphorylation (pEGFR AlphaLISA, 2 h), Ba/F3 EGFR exon 20 NPG insertion. To be noted: Ba/F3 EGFR exon 20 NPG Ins D770_N771.

Assay [3] concerns the target T4, Ba/F3 cells with EGFR exon 20 ASV Ins V769_D770 (Homo sapiens, UniProt P00533, INS769ASV).
T4 construct: expressed in transfected cells; host or cells: Ba/F3 (murine pro-B cells), retroviral transduction, puromycin selection, IL3-independent pool
The assay can be described thus: EGFR activity: Ba/F3 cell viability (CellTiter-Glo, 72 h), EGFR exon 20 ASV insertion. To be noted: EGFR exon 20 ASV Ins V769_D770, cell viability, read-out: BaF3 ASV IC50.

For another assay, the target named is T5, pEGFR in CUTO14 cells (Homo sapiens, UniProt P00533, DUP767-769).
T5 construct: endogenous in cells; host or cells: CUTO14 cells
Put plainly: Inhibitor activity on EGFR phosphorylation (pEGFR AlphaLISA, 2 h), CUTO14 cells. The method, then:
CUTO14 cells were obtained from Dr. Robert C. Doebele at the University of Colorado.
Shake 350 rpm for 1 hr in the dark • 3.4 Prepare donor mix under low light conditions prior to use. Dispense 5 μL of donor mix to all the wells. Mix well on the shaker, seal and wrap in aluminum foil and incubate 1.5 hrs at room temperature in the dark • 3.5 Transfer 18.5 μL mixture to OptiPlate 384, and read using an Envision.
On the technique in general: In Alpha technology, singlet oxygen from a donor bead excites a nearby acceptor bead.

The values below come from patent US20230364070A1, “PYRROLO[3,2-C]PYRIDIN-4-ONE DERIVATIVES USEFUL IN THE TREATMENT OF CANCER” (Scorpion Therapeutics, Inc., priority 2020, published 2023).

Each structure is given as a SMILES string. A value given as a limit tells only on which side of the number the result lay.

As usually defined, the IC50 is the midpoint of a concentration-inhibition curve.

T4 sequence (P00533 with tags, fused parts or gaps INS769ASV): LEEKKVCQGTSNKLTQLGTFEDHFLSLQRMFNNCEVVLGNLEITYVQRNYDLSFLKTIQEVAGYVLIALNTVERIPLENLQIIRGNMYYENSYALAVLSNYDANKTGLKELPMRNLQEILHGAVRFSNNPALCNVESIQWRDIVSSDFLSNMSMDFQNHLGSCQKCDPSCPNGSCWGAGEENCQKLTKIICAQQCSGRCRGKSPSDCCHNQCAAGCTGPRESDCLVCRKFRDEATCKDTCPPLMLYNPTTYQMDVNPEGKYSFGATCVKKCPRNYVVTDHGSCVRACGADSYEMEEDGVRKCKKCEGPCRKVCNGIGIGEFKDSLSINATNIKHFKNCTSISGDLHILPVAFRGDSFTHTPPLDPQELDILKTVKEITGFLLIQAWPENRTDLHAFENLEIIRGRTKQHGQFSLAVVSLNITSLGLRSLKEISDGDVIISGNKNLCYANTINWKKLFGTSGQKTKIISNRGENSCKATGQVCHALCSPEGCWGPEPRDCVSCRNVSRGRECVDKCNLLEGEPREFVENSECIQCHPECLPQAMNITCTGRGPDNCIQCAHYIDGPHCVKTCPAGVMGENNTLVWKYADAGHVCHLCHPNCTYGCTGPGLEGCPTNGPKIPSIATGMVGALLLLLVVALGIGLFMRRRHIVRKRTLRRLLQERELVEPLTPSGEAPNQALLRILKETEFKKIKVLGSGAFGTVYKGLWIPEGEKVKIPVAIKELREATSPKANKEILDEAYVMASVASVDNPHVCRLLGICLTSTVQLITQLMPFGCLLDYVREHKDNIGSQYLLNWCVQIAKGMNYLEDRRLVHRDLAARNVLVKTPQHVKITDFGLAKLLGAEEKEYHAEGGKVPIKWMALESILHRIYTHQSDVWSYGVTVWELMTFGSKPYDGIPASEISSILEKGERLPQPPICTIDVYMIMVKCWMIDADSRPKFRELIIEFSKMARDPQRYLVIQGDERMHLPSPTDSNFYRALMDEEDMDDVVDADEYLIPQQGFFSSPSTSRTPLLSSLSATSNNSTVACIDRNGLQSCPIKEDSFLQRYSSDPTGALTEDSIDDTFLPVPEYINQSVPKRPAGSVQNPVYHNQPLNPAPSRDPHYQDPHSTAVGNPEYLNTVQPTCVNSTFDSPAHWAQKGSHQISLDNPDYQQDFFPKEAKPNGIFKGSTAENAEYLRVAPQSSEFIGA
T5 sequence (P00533 with tags, fused parts or gaps DUP767-769): as the sequence (P00533 with tags, fused parts or gaps INS769ASV) above
T3 sequence (P00533 with tags, fused parts or gaps INS770NPG): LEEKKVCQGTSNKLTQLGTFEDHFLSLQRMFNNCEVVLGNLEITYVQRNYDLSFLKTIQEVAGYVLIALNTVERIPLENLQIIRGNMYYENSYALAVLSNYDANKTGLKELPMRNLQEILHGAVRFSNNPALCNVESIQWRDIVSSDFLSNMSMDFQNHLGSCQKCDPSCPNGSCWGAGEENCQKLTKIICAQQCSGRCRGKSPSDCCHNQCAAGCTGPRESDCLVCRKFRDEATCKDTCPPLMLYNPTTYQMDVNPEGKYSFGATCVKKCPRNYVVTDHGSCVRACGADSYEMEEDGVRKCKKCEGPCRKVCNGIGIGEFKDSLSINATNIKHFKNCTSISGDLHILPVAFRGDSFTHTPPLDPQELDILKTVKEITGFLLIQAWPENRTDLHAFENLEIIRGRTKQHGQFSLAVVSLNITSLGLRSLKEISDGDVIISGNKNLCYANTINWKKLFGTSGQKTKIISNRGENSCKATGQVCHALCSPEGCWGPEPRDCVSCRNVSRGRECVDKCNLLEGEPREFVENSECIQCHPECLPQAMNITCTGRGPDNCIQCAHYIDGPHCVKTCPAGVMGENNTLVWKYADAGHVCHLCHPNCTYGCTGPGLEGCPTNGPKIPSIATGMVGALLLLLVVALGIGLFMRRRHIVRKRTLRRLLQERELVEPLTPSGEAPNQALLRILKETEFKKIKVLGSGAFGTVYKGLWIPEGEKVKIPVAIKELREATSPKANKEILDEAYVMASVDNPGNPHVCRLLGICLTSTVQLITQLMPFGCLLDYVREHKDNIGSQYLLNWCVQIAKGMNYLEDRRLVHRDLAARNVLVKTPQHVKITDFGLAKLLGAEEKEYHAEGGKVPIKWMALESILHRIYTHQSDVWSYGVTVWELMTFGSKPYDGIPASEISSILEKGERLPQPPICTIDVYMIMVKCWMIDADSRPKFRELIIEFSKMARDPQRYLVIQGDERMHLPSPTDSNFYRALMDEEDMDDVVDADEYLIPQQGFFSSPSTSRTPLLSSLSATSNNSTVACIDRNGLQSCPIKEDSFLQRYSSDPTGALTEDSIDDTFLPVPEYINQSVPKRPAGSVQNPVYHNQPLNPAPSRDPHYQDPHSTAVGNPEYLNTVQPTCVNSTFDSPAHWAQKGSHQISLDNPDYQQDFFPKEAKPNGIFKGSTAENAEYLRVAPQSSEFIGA
T2 sequence (P00533 with tags, fused parts or gaps INS770NPG): as above

For `COc1c(F)cccc1Nc1c(-c2ccncc2OCC2CCc3nccn32)[nH]c2c1C(=O)NCC2` (stereo not drawn) [Compound 128, 2-(3-((6,7-dihydro-5H-pyrrolo[1,2-a]imidazol-5-yl)methoxy)pyridin-4-yl)-3-((3-fluoro-2-methoxyphenyl)amino)-1,5,6,7-tetrahydro-4H-pyrrolo[3,2-c]pyridin-4-one], the IC50 (at Ba/F3 cells with EGFR WT; in assay [1]; in assay [2]) was greater than 1 µM each time.
Turning to `COc1c(F)cccc1Nc1c(-c2ccncc2OCc2nnc3n2CCC3)[nH]c2c1C(=O)NCC2` [Compound 131, 3-[(3-fluoro-2-methoxyphenyl)amino]-2-(3-[5H,6H,7H-pyrrolo[2,1-c][1,2,4]triazol-3-ylmethoxy]pyridin-4-yl)-1H,5H,6H,7H-pyrrolo[3,2-c]pyridin-4-one], the half-maximal inhibitory concentration (IC50) (at Ba/F3 cells with EGFR WT; in assay [1]; in assay [2]) was greater than 1 µM in each case.
As for `COc1c(Cl)cccc1Nc1c(-c2ccncc2OC[C@@H]2CCCN2C(C)=O)[nH]c2c1C(=O)NCC2` [Compound 141a, (S)-2-(3-((1-acetylpyrrolidin-2-yl)methoxy)pyridin-4-yl)-3-((3-chloro-2-methoxyphenyl)amino)-1,5,6,7-tetrahydro-4H-pyrrolo[3,2-c]pyridin-4-one], the IC50 at Ba/F3 cells with EGFR WT was greater than 1 µM; in assay [1], greater than 1 µM; in assay [2], 0.1 to 1 µM.
As to `COc1c(Cl)cccc1Nc1c(-c2ccncc2OC[C@H]2CCCN2C(C)=O)[nH]c2c1C(=O)NCC2` [Compound 141b, 2-(3-[[(2R)-1-acetylpyrrolidin-2-yl]methoxy]pyridin-4-yl)-3-[(3-chloro-2-methoxyphenyl)amino]-1H,5H,6H,7H-pyrrolo[3,2-c]pyridin-4-one], the IC50 is greater than 1 µM on Ba/F3 cells with EGFR WT, greater than 1 µM in assay [1] and less than 0.1 µM in assay [2].
Take `COc1c(F)cccc1Nc1c(-c2ccncc2OCn2nnc3ccccc32)[nH]c2c1C(=O)NCC2` [Compound 479, 2-[3-(1,2,3-benzotriazol-1-ylmethoxy)pyridin-4-yl]-3-[(3-fluoro-2-methoxyphenyl)amino]-1H,5H,6H,7H-pyrrolo[3,2-c]pyridin-4-one]: the IC50 on Ba/F3 cells with EGFR WT is greater than 1 µM; in assay [1], greater than 1 µM; in assay [2], 0.1 to 1 µM.
As to `COc1c(Cl)cccc1Nc1c(-c2ccncc2OC[C@@H]2CCN2S(C)(=O)=O)[nH]c2c1C(=O)NCC2` [compound 192, 3-[(3-chloro-2-methoxyphenyl)amino]-2-(3-{[(2S)-1-methanesulfonylazetidin-2-yl]methoxy}pyridin-4-yl)-1H,5H,6H,7H-pyrrolo[3,2-c]pyridin-4-one], the IC50 in assay [2] was less than 0.1 µM.
Take `COc1c(Cl)cccc1Nc1c(-c2ccncc2OC[C@@H]2CN(C(C)=O)CCO2)[nH]c2c1C(=O)NCC2` [compound 195, 2-(3-{[(2S)-4-acetylmorpholin-2-yl]methoxy}pyridin-4-yl)-3-[(3-chloro-2-methoxyphenyl)amino]-1H,5H,6H,7H-pyrrolo[3,2-c]pyridin-4-one]: the IC50 in assay [2] was less than 0.1 µM.
On to `C=CC(=O)N1CCC[C@H]1COc1cnccc1-c1[nH]c2c(c1Nc1cccc(F)c1OC)C(=O)NCC2` [compound 212, 3-[(3-fluoro-2-methoxyphenyl)amino]-2-(3-{[(2S)-1-(prop-2-enoyl)pyrrolidin-2-yl]methoxy}pyridine-4-yl)-1H,5H,6H,7H-pyrrolo[3,2-c]pyridin-4-one], for which the IC50 in assay [2] was less than 0.1 µM.
As to `C=CC(=O)N1CCC[C@@]1(C)C#Cc1cnccc1-c1[nH]c2c(c1Nc1cccc(F)c1OC)C(=O)NCC2` [compound 246, 3-[(3-fluoro-2-methoxyphenyl)amino]-2-(3-{2-[(2S)-2-methyl-1-(prop-2-enoyl)pyrrolidin-2-yl]ethynyl}pyridin-4-yl)-1H,5H,6H,7H-pyrrolo[3,2-c]pyridin-4-one], in assay [2], the IC50 was less than 0.1 µM.
For the compound `CCc1c(F)cccc1Nc1c(-c2ccncc2C#CC(C)(C)NC(=O)/C=C/CN(C)C)[nH]c2c1C(=O)NCC2` [compound 453], the IC50 was 0.1 to 1 µM on Ba/F3 cells with EGFR WT, less than 0.1 µM in assay [1], less than 0.1 µM in assay [3] and less than 0.1 µM against pEGFR in CUTO14 cells.
With `COc1c(Cl)cccc1Nc1c(-c2ccncc2C#C[C@H]2CCN2C(=O)/C=C/CN(C)C)[nH]c2c1C(=O)NCC2` [compound 456], the half-inhibitory concentration (IC50) at Ba/F3 cells with EGFR WT was 0.1 to 1 µM; in assay [1], less than 0.1 µM; in assay [3], less than 0.1 µM; against pEGFR in CUTO14 cells, less than 0.1 µM.
For `COc1c(Cl)cccc1Nc1c(-c2ccncc2C#C[C@@H]2CCN2C(=O)/C=C/CN(C)C)[nH]c2c1C(=O)NCC2` [compound 457], the IC50 (on Ba/F3 cells with EGFR WT; in assay [1]; in assay [3]; on pEGFR in CUTO14 cells) was less than 0.1 µM each time.
For the compound `COc1c(F)cccc1Nc1c(-c2ccncc2C#CC2(C)CCN2C(=O)/C=C/CN(C)C)[nH]c2c1C(=O)NCC2` (stereo not drawn) [compound 462], the IC50 (at Ba/F3 cells with EGFR WT; in assay [1]; in assay [3]; against pEGFR in CUTO14 cells) was greater than 1 µM throughout.
Regarding `COc1c(F)cccc1Nc1c(-c2ccncc2C#CC(C)(C)NC(=O)/C=C/CN2CC(F)C2)[nH]c2c1C(=O)NCC2` [compound 463], the IC50 at Ba/F3 cells with EGFR WT is greater than 1 µM; in assay [1] it was less than 0.1 µM; in assay [3], 0.1 to 1 µM; against pEGFR in CUTO14 cells, less than 0.1 µM.
For the compound `COc1c(F)cccc1Nc1c(-c2ccncc2C#CC(C)(C)NC(=O)/C=C/CN2CCN(C)CC2)[nH]c2c1C(=O)NCC2` [compound 464], the IC50 on Ba/F3 cells with EGFR WT is greater than 1 µM; in assay [1], greater than 1 µM; in assay [3] it was greater than 1 µM; against pEGFR in CUTO14 cells, 0.1 to 1 µM.
For `COc1c(F)cccc1Nc1c(-c2ccncc2C#CC(C)(C)NC(=O)C#CCN(C)C)[nH]c2c1C(=O)NCC2` [compound 465], the IC50 on Ba/F3 cells with EGFR WT was 0.1 to 1 µM; in assay [1] it was less than 0.1 µM; in assay [3], less than 0.1 µM; on pEGFR in CUTO14 cells it was less than 0.1 µM.
In turn, `COc1c(Cl)cccc1Nc1c(-c2ccncc2OCc2ccco2)[nH]c2c1C(=O)NCC2` [compound 471, 3-[(3-chloro-2-methoxyphenyl)amino]-2-[3-(furan-2-ylmethoxy)pyridin-4-yl]-1H,5H,6H,7H-pyrrolo[3,2-c]pyridin-4-one] yielded an IC50 in assay [2] greater than 1 µM.
For the compound `COc1c(F)cccc1Nc1c(-c2ccncc2Oc2cnn(C)c2)[nH]c2c1C(=O)NCC2` [compound 484, 3-[(3-fluoro-2-methoxyphenyl)amino]-2-[3-[(1-methylpyrazol-4-yl)oxy]pyridin-4-yl]-1H,5H,6H,7H-pyrrolo[3,2-c]pyridin-4-one], the IC50 in assay [2] is greater than 1 µM.
In assay [2], `COc1c(Cl)cccc1Nc1c(-c2ccncc2C#C[C@H]2COCCN2C)[nH]c2c1C(=O)NCC2` [compound 494, 3-[(3-chloro-2-methoxyphenyl)amino]-2-(3-[2-[(3S)-4-methylmorpholin-3-yl]ethynyl]pyridin-4-yl)-1H,5H,6H,7H-pyrrolo[3,2-c]pyridin-4-one] showed an IC50 of less than 0.1 µM.
For `C=CC(=O)N1CCOC[C@H]1C#Cc1cnccc1-c1[nH]c2c(c1Nc1cccc(Cl)c1OC)C(=O)NCC2` [compound 514, 3-[(3-chloro-2-methoxyphenyl)amino]-2-(3-{2-[(3R)-4-(prop-2-enoyl)morpholin-3-yl]ethynyl}pyridin-4-yl)-1H,5H,6H,7H-pyrrolo[3,2-c]pyridin-4-one], in assay [2], the IC50 is less than 0.1 µM.
Still for that read-out and setting: in the case of `C=CC(=O)N1CCOC[C@@H]1C#Cc1cnccc1-c1[nH]c2c(c1Nc1cccc(Cl)c1OC)C(=O)NCC2` [compound 515, 3-[(3-chloro-2-methoxyphenyl)amino]-2-(3-{2-[(3S)-4-(prop-2-enoyl)morpholin-3-yl]ethynyl}pyridine-4-yl)-1H,5H,6H,7H-pyrrolo[3,2-c]pyridin-4-one] it was less than 0.1 µM.
In the case of `C=CC(=O)N1CCN(C)C[C@@H]1COc1cnccc1-c1[nH]c2c(c1Nc1cccc(Cl)c1OC)C(=O)NCC2` [compound 565], the IC50 on Ba/F3 cells with EGFR WT is greater than 1 µM; in assay [1], 0.1 to 1 µM; in assay [3], 0.1 to 1 µM; against pEGFR in CUTO14 cells, 0.1 to 1 µM.
With `C=CC(=O)N1CCN(C)C[C@@H]1COc1cnccc1-c1[nH]c2c(c1Nc1cccc(F)c1OC)C(=O)NCC2` [compound 566], the IC50 at Ba/F3 cells with EGFR WT is greater than 1 µM; in assay [1], 0.1 to 1 µM; in assay [3], greater than 1 µM; at pEGFR in CUTO14 cells, greater than 1 µM.
With `C=C(F)C(=O)N1CC[C@@H]1COc1cnccc1-c1[nH]c2c(c1Nc1cccc(F)c1C)C(=O)NCC2` [compound 567], the IC50 on Ba/F3 cells with EGFR WT was 0.1 to 1 µM; in assay [1], less than 0.1 µM; in assay [3], 0.1 to 1 µM; against pEGFR in CUTO14 cells, less than 0.1 µM.
Take `C=CC(=O)N1CCN(C)C[C@H]1COc1cnccc1-c1[nH]c2c(c1Nc1cccc(Cl)c1OC)C(=O)NCC2` [compound 568]: the IC50 on Ba/F3 cells with EGFR WT is 0.1 to 1 µM; in assay [1], less than 0.1 µM; in assay [3], less than 0.1 µM; against pEGFR in CUTO14 cells, less than 0.1 µM.
On to `C=CC(=O)N1CCN(C)C[C@H]1COc1cnccc1-c1[nH]c2c(c1Nc1cccc(F)c1OC)C(=O)NCC2` [compound 569], for which the IC50 on Ba/F3 cells with EGFR WT is 0.1 to 1 µM; in assay [1], less than 0.1 µM; in assay [3], less than 0.1 µM; on pEGFR in CUTO14 cells it was less than 0.1 µM.
